# In PubChem BioAssay AID2060884 (Molecular Pharmacology Branch, DTP, NCI, 2025):
# Tested on: NCI-H929 complex spheroids, viability % test/control
# Experiment: Anticancer human tumor NCI-H929 cell line growth inhibition [RAS];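 note: compound exposure lasted seven days before viability was read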
# Settings: for IC50: curve of first compound; for viability, T/C: stronger effect = lower value
# Source text: RAS pathway inhibitors in Combinations in Complex Spheroids
# A high-throughput screen of multi-cell type tumor spheroids was designed to identify active combinations of RAS pathway inhibitors and targeted small molecules. Complex spheroids include a stromal component modeled by human endothelial cells (HUVEC) and fibroblasts modeled by human mesenchymal stem cells (MSCs). The concentration ranges selected for each drug and investigational agent were based upon clinically achievable concentrations if the clinical Cmax of the agent was known.
# Compounds. The drugs and investigational agents: abemaciclib (NSC768073), cobimetinib (NSC768068), divarasib (GDC6063, NSC841802), docetaxel (NSC628503), GDC-1971 (RLY-1971, NSC841576), gemcitabine (NSC613327), inavolisib (NSC800729), ipatasertib (NSC767898), KB-0742 (NSC834161), MRTX-1133 (NSC836407), osimertinib (NSC779217), RMC-4630 (NSC839698), RMC-6236 (NSC851965), RMC-6291 (NSC852671), Ro-3306 (NSC812927), sapanisertib (NSC764658), SN-38 (NSC673596), staurosporine (NSC755774), SY5609 (NSC837396), and tovorafenib (DAY101, NSC766906), were obtained from the National Cancer Institute (NCI) Developmental Therapeutics Program Chemical Repository. The FDA-approved anticancer drug set is available from the NCI Developmental Therapeutics Program. […] The stock solutions were prepared in dimethyl sulfoxide (DMSO, Sigma-Aldrich, St. Louis, MO, cat. D2650) at 800-fold the tested concentration and stored at -70 degrees C prior to their use. All drugs and investigational agents were tested over a range starting from a high concentration at or near the clinical Cmax and decreasing in half-log increments. If the clinical Cmax for an agent had not been determined, the highest concentration tested was 10 microM.
# Cell Culture. All cells were maintained in an incubator at 37 degrees C and 5% CO2 with 95% humidity. The PDC lines were cultured according to standard operating procedures established by the NCI PDMR. All PDCs were thawed and cultured in Matrigel-coated flasks prepared with a working solution of 1X Ham's F-12 nutrient mix, without supplementation (Invitrogen, Waltham, MA, cat. 11765054), 100 U/mL penicillin-streptomycin (Invitrogen, cat. 15140122), and 2.5% Matrigel (Corning Inc., Corning, NY, cat. 354248) for the first three passages. The 362531-283-R-J2-PDC and 782815-120-R-J1-PDC lines were cultured in 6C/Colon 1B media, which includes advanced DMEM/F-12 (Thermo Fisher Scientific, cat. 12634028), 10 mM HEPES (Thermo Fisher Scientific, cat. 15630080), 1X GlutaMAX supplement (Thermo Fisher Scientific, cat. 35050061), 0.1 mg/mL primocin (InvivoGen, San Diego, CA, cat. ant-pm-2), 10% defined fetal bovine serum, heat inactivated (HyClone Laboratories Inc., Logan, UT, cat. SH30070.03HI), 50% L-WRN conditioned media (ATCC, cat. CRL-3276), 1.25 mM N-Acetyl-L-cysteine (Sigma-Aldrich, cat. A9165), 10 mM nicotinamide (Sigma-Aldrich, cat. N0636), 1X B-27 supplement (Thermo Fisher Scientific, cat. 17504044), 1X N-2 supplement (Thermo Fisher Scientific, cat. 17502048), 50 ng/mL human EGF (Thermo Fisher Scientific, cat. PHG0311), and 10 microM Y-27632 dihydrochloride (Tocris Bioscience, cat. 1254). The K12877-001-R-J1-PDC line was cultured in 6I media, which includes all 6C/Colon 1B media plus 10 ng/mL human FGF-10 (PeproTech, cat. 100-26), 1 ng/mL human FGF-2 (PeproTech, cat. 100-18B), 1 µM prostaglandin E2 (Tocris Bioscience, cat. 2296), […] hydrocortisone (Sigma-Aldrich, cat. H4001), and […] bovine insulin (Sigma-Aldrich, cat. I6634). The K86415-001-R-J1-PDC line was cultured in 6D media, which includes all 6C/Colon 1B media components minus the L-WRN conditioned media. The 485176-168-R4-J1-PDC was cultured in PANC media, which includes all 6C/Colon 1B media plus 100 ng/mL human FGF-10 (PeproTech, cat. 100-26), 500 nM SB-431542 (Selleckchem, cat. S1067), and 10 nM gastrin (Tocris Bioscience, cat. 3006). […]
# [1] = second compound 0.0316 µM, first compound 0.0316 µM
# [2] = second compound 0.0316 µM, first compound 0.1 µM
# [3] = second compound 0.0316 µM, first compound 0.316 µM
# [4] = second compound 0.0316 µM, first compound 1 µM
# [5] = second compound 0.0316 µM, first compound 3.16 µM
# [6] = second compound 0.0316 µM, first compound 10 µM
# [7] = second compound 0.1 µM, first compound 0.0316 µM
# [8] = second compound 0.1 µM, first compound 0.1 µM
# [9] = second compound 0.1 µM, first compound 0.316 µM
# [10] = second compound 0.1 µM, first compound 1 µM
# [11] = second compound 0.1 µM, first compound 3.16 µM
# [12] = second compound 0.1 µM, first compound 10 µM
# [13] = second compound 0.316 µM, first compound 0.0316 µM
# [14] = second compound 0.316 µM, first compound 0.1 µM
# [15] = second compound 0.316 µM, first compound 0.316 µM
# [16] = second compound 0.316 µM, first compound 1 µM
# [17] = second compound 0.316 µM, first compound 3.16 µM
# [18] = second compound 0.316 µM, first compound 10 µM
# [19] = second compound 1 µM, first compound 0.0316 µM
# [20] = second compound 1 µM, first compound 0.1 µM
# [21] = second compound 1 µM, first compound 0.316 µM
# [22] = second compound 1 µM, first compound 1 µM
# [23] = second compound 1 µM, first compound 3.16 µM
# [24] = second compound 1 µM, first compound 10 µM
# [25] = second compound 0.00316 µM, first compound 0.0316 µM
# [26] = second compound 0.00316 µM, first compound 0.1 µM
# [27] = second compound 0.00316 µM, first compound 0.316 µM
# [28] = second compound 0.00316 µM, first compound 1 µM
# [29] = second compound 0.00316 µM, first compound 3.16 µM
# [30] = second compound 0.00316 µM, first compound 10 µM
# [31] = second compound 0.01 µM, first compound 0.0316 µM
# [32] = second compound 0.01 µM, first compound 0.1 µM
# [33] = second compound 0.01 µM, first compound 0.316 µM
# [34] = second compound 0.01 µM, first compound 1 µM
# [35] = second compound 0.01 µM, first compound 3.16 µM
# [36] = second compound 0.01 µM, first compound 10 µM
compound,measurement,setting,value
CC(=O)OC12COC1CC(O)C1(C)C(=O)C(O)C3=C(C)C(OC(=O)C(O)C(NC(=O)OC(C)(C)C)c4ccccc4)CC(O)(C(OC(=O)c4ccccc4)C21)C3(C)C (stereo unspecified) + C#Cc1c(F)ccc2cc(O)cc(-c3ncc4c(N5CC6CCC(C5)N6)nc(OCC56CCCN5CC(F)C6)nc4c3F)c12,IC50,second compound 0.0316 µM,< 31.6 nM
same,IC50,second compound 0.1 µM,< 31.6 nM
same,IC50,second compound 0.316 µM,< 31.6 nM
same,IC50,second compound 1 µM,< 31.6 nM
same,IC50,second compound 3.16 µM,< 31.6 nM
same,IC50,second compound 10 µM,< 31.6 nM
same,"viability, T/C",[1],0.76%
same,"viability, T/C",[2],1.3%
same,"viability, T/C",[3],1.24%
same,"viability, T/C",[4],1.01%
same,"viability, T/C",[5],1.67%
same,"viability, T/C",[6],0.89%
same,"viability, T/C",[7],1.76%
same,"viability, T/C",[8],0.93%
same,"viability, T/C",[9],1.5%
same,"viability, T/C",[10],1.51%
same,"viability, T/C",[11],1.27%
same,"viability, T/C",[12],0.89%
same,"viability, T/C",[13],1.1%
same,"viability, T/C",[14],0.78%
same,"viability, T/C",[15],1.16%
same,"viability, T/C",[16],1.88%
same,"viability, T/C",[17],1.5%
same,"viability, T/C",[18],0.79%
same,"viability, T/C",[19],1.5%
same,"viability, T/C",[20],0.8%
same,"viability, T/C",[21],1.05%
same,"viability, T/C",[22],2.04%
same,"viability, T/C",[23],1.33%
same,"viability, T/C",[24],0.88%
same,"viability, T/C","second compound 3.16 µM, first compound 0.0316 µM",1.91%
same,"viability, T/C","second compound 3.16 µM, first compound 0.1 µM",0.99%
same,"viability, T/C","second compound 3.16 µM, first compound 0.316 µM",1.37%
same,"viability, T/C","second compound 3.16 µM, first compound 1 µM",0.71%
same,"viability, T/C","second compound 3.16 µM, first compound 3.16 µM",1.08%
same,"viability, T/C","second compound 3.16 µM, first compound 10 µM",0.76%
same,"viability, T/C","second compound 10 µM, first compound 0.0316 µM",1.78%
same,"viability, T/C","second compound 10 µM, first compound 0.1 µM",0.88%
same,"viability, T/C","second compound 10 µM, first compound 0.316 µM",1.86%
same,"viability, T/C","second compound 10 µM, first compound 1 µM",1.55%
same,"viability, T/C","second compound 10 µM, first compound 3.16 µM",1.23%
same,"viability, T/C","second compound 10 µM, first compound 10 µM",0.77%
CC(Nc1ccc2c(c1)OCCn1cc(N3C(=O)OCC3C(F)F)nc1-2)C(N)=O (stereo unspecified) + C=CC(=O)N1CCN(c2nc(OCC3CCCN3C)nc3c(F)c(-c4nc(N)cc(C)c4C(F)(F)F)c(Cl)cc23)C(C)C1,IC50,second compound 0.00316 µM,> 10000 nM
same,IC50,second compound 0.01 µM,> 10000 nM
same,IC50,second compound 0.0316 µM,> 10000 nM
same,IC50,second compound 0.1 µM,> 10000 nM
same,IC50,second compound 0.316 µM,> 10000 nM
same,IC50,second compound 1 µM,8110 nM
same,"viability, T/C",[25],99%
same,"viability, T/C",[26],103%
same,"viability, T/C",[27],112%
same,"viability, T/C",[28],107%
same,"viability, T/C",[29],110%
same,"viability, T/C",[30],61.1%
same,"viability, T/C",[31],94.8%
same,"viability, T/C",[32],103%
same,"viability, T/C",[33],107%
same,"viability, T/C",[34],112%
same,"viability, T/C",[35],102%
same,"viability, T/C",[36],64.3%
same,"viability, T/C",[1],98%
same,"viability, T/C",[2],106%
same,"viability, T/C",[3],111%
same,"viability, T/C",[4],114%
same,"viability, T/C",[5],112%
same,"viability, T/C",[6],64.6%
same,"viability, T/C",[7],97.8%
same,"viability, T/C",[8],104%
same,"viability, T/C",[9],113%
same,"viability, T/C",[10],113%
same,"viability, T/C",[11],113%
same,"viability, T/C",[12],66.1%
same,"viability, T/C",[13],102%
same,"viability, T/C",[14],107%
same,"viability, T/C",[15],112%
same,"viability, T/C",[16],112%
same,"viability, T/C",[17],112%
same,"viability, T/C",[18],77.5%
same,"viability, T/C",[19],103%
same,"viability, T/C",[20],110%
same,"viability, T/C",[21],114%
same,"viability, T/C",[22],115%
same,"viability, T/C",[23],110%
same,"viability, T/C",[24],36.7%
CCC(CC)c1cc(NC2CCC(N)C2)n2nccc2n1 (stereo unspecified) + C=CC(=O)N1CCN(c2nc(OCC3CCCN3C)nc3c(F)c(-c4nc(N)cc(C)c4C(F)(F)F)c(Cl)cc23)C(C)C1,IC50,second compound 0.00316 µM,1720 nM
same,IC50,second compound 0.01 µM,1770 nM
same,IC50,second compound 0.0316 µM,1750 nM
same,IC50,second compound 0.1 µM,1760 nM
same,IC50,second compound 0.316 µM,1770 nM
same,IC50,second compound 1 µM,1780 nM
same,"viability, T/C",[25],100%
same,"viability, T/C",[26],91.7%
same,"viability, T/C",[27],93.5%
same,"viability, T/C",[28],93.2%
same,"viability, T/C",[29],1.09%
same,"viability, T/C",[30],0.82%
same,"viability, T/C",[31],96.3%
same,"viability, T/C",[32],98.3%
same,"viability, T/C",[33],97.9%
same,"viability, T/C",[34],97.9%
same,"viability, T/C",[35],1.58%
same,"viability, T/C",[36],0.56%
same,"viability, T/C",[1],93.3%
same,"viability, T/C",[2],95.7%
same,"viability, T/C",[3],97.3%
same,"viability, T/C",[4],100%
same,"viability, T/C",[5],1.12%
same,"viability, T/C",[6],0.24%
same,"viability, T/C",[7],95.9%
same,"viability, T/C",[8],96.1%
same,"viability, T/C",[9],99.4%
same,"viability, T/C",[10],99.6%
same,"viability, T/C",[11],0.2%
same,"viability, T/C",[12],0.59%
same,"viability, T/C",[13],98.5%
same,"viability, T/C",[14],99.4%
same,"viability, T/C",[15],94.7%
same,"viability, T/C",[16],101%
same,"viability, T/C",[17],1%
same,"viability, T/C",[18],0.48%
same,"viability, T/C",[19],106%
same,"viability, T/C",[20],104%
same,"viability, T/C",[21],97%
same,"viability, T/C",[22],99.2%
same,"viability, T/C",[23],0.64%
same,"viability, T/C",[24],0.11%
